Assay results taken from the supplement of paper PMC12494721.
Counter-ions that a name gives are not always drawn.

How the values were obtained:
Settings in all cases: incubation time: 27 h, anaerobic, 37 °C
[1] = test system: Ruminococcus gnavus DSM 108212; experiment: fold change of Tryptamine concentration vs plate DMSO controls (fold change (ratio)); higher = more amine produced
[2] = test system: Ruminococcus gnavus DSM 108212; experiment: fold change of 2-Phenylethylamine concentration vs plate DMSO controls (fold change (ratio)); higher = more amine produced
[3] = test system: Klebsiella aerogenes DSM 30053; experiment: fold change of Cadaverine concentration vs plate DMSO controls (fold change (ratio)); higher = more amine produced
[4] = test system: Klebsiella aerogenes DSM 30053; experiment: fold change of Putrescine concentration vs plate DMSO controls (fold change (ratio)); higher = more amine produced
[5] = test system: Klebsiella aerogenes DSM 30053; experiment: fold change of Histamine concentration vs plate DMSO controls (fold change (ratio)); higher = more amine produced
Protocol: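 Dose-response follow-up: bacteria (E. coli IAI1, K. aerogenes DSM 30053, C. sporogenes DSM 1664, R. gnavus DSM 108212) were grown anaerobically in mGAM at 37 °C for 27 h with compound at 0.6125-20 µM. Amines were measured in the whole culture by targeted LC-MS/MS. Metabolite fold change and OD595 fold change are relative to plate DMSO controls; n=2 biological replicates. OD fold changes are not clipped, so slightly negative values mean no growth.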

[6] = test system: Klebsiella aerogenes DSM 30053; experiment: growth (OD595) fold change vs plate DMSO controls (fold change (ratio)); higher = more growth
[7] = test system: Ruminococcus gnavus DSM 108212; experiment: as above
Escherichia coli IAI1 [8] = experiment: fold change of Cadaverine concentration vs plate DMSO controls (fold change (ratio)); higher = more amine produced
Escherichia coli IAI1 [9] = experiment: fold change of Putrescine concentration vs plate DMSO controls (fold change (ratio)); higher = more amine produced
Escherichia coli IAI1 [10] = experiment: growth (OD595) fold change vs plate DMSO controls (fold change (ratio)); higher = more growth

C[C@@H](O)[C@H]1C(=O)N2C(C(=O)O)=C(S[C@@H]3CN[C@H](C(=O)N(C)C)C3)[C@H](C)[C@H]12 [Meropenem]
Settings	fold change of 2-Phenylethylamine concentration, [2]	fold change of Cadaverine concentration, [3]	fold change of Histamine concentration, [5]	fold change of Putrescine concentration, [4]	fold change of Tryptamine concentration, [1]	growth, [6]	growth, [7]
0.6125 µM	0.912	0.982	0.953	1	1.11	0.844	1.13
1.25 µM	0.801	1.01	0.643	1.06	0.93	0.992	1.07
2.5 µM	0.578	1	0.612	0.976	0.801	0.894	1.63
5 µM	0.185	1.06	0.462	1.01	0.259	1.4	1.88
10 µM	0.162	1.13	0.289	0.879	0.217	0.935	0.41
20 µM	0.162	1.18	0.227	0.667	0.2	0.363	0.365

CO/N=C(\C(=O)N[C@@H]1C(=O)N2C(C(=O)[O-])=C(C[n+]3ccn4ncccc43)CS[C@H]12)c1nsc(N)n1 [Cefozopran hydrochloride]
Settings	fold change of 2-Phenylethylamine concentration, [2]	fold change of Cadaverine concentration, Escherichia coli IAI1 [8]	fold change of Putrescine concentration, Escherichia coli IAI1 [9]	fold change of Tryptamine concentration, [1]	growth, Escherichia coli IAI1 [10]	growth, [7]
0.6125 µM	0.623	0.986	0.772	0.714	0.818	1.24
1.25 µM	0.361	0.959	0.919	0.52	0.863	0.965
2.5 µM	0.162	0.929	0.717	0.275	1.06	1.03
5 µM	0.105	0.962	0.793	0.16	1.12	1.06
10 µM	0.101	1.38	1.12	0.148	1.15	1.24
20 µM	0.0948	2.16	2.17	0.135	0.238	0.529

CCN1CCN(C(=O)N[C@@H](C(=O)N[C@@H]2C(=O)N3C(C(=O)O)=C(CSc4nnnn4C)CS[C@H]23)c2ccc(O)cc2)C(=O)C1=O [Cefoperazone dihydrate]
Settings	fold change of 2-Phenylethylamine concentration, [2]	fold change of Cadaverine concentration, Escherichia coli IAI1 [8]	fold change of Putrescine concentration, Escherichia coli IAI1 [9]	fold change of Tryptamine concentration, [1]	growth, Escherichia coli IAI1 [10]	growth, [7]
0.6125 µM	0.866	1.07	0.765	1.01	0.9	1.55
1.25 µM	0.808	1.12	0.851	0.955	0.914	1.15
2.5 µM	0.387	1.82	3.2	0.568	0.514	0.937
5 µM	0.153	2.14	1.77	0.22	0.0751	0.627
10 µM	0.105	2.27	1.11	0.14	0.0151	0.478
20 µM	0.0986	2.17	1.04	0.124	-0.0235	0.345
